Laboratory results as given in the supplement of paper PMC10307832.

How the values were obtained:
Assay in all cases: relative viability (nuclei count vs DMSO), 5 days (fraction); higher = more cells survive
[1] = compound: C1COCCN1C2=NC(=NC3=C2OC4=C3C=CC=N4)C5=CC(=CC=C5)NC(=O)C6=CN=C(C=C6)N + Nc1nc2[nH]cc(CCc3ccc(C(=O)N[C@@H](CCC(=O)O)C(=O)O)cc3)c2c(=O)[nH]1 [Pemetrexed] (partner 0.2 µM)
Summary of the method: (§1)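 Lung cancer cell lines in 1536-well plates got either a single drug or a fixed anchor-drug dose together with five library-drug doses (not always all listed) in √10 steps, by pin tool, on the day after seeding. Nuclei were counted after 5 days, and relative viability is the treated-to-vehicle ratio of nuclei counts. Values are medians of duplicate plates.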

Entinostat + Lapatinib = compound: Nc1ccccc1NC(=O)c1ccc(CNC(=O)OCc2cccnc2)cc1 [Entinostat] + CS(=O)(=O)CCNCc1ccc(-c2ccc3ncnc(Nc4ccc(OCc5cccc(F)c5)c(Cl)c4)c3c2)o1 [Lapatinib] (partner 2 µM)
Summary of the method: as §1

Entinostat + Alpelisib = compound: Nc1ccccc1NC(=O)c1ccc(CNC(=O)OCc2cccnc2)cc1 [Entinostat] + Cc1nc(NC(=O)N2CCC[C@H]2C(N)=O)sc1-c1ccnc(C(C)(C)C(F)(F)F)c1 [Alpelisib] (partner 2 µM)
Summary of the method: as §1

SGI-1776 + Decitabine = compound: CN1CCC(CNc2ccc3ncc(-c4cccc(OC(F)(F)F)c4)n3n2)CC1 [SGI-1776] + Nc1ncn([C@H]2C[C@H](O)[C@@H](CO)O2)c(=O)n1 [Decitabine] (partner 2 µM)
Summary of the method: as §1

UMC-11
relative viability ([1]; first compound 0.02 µM): 0.772 | relative viability ([1]; first compound 0.06325 µM): 0.827 | relative viability ([1]; first compound 0.2 µM): 0.694 | relative viability ([1]; first compound 0.6325 µM): 0.814 | relative viability ([1]; first compound 2 µM): 0.445 | relative viability (Entinostat + Lapatinib; first compound 0.02 µM): 1.17 | relative viability (Entinostat + Lapatinib; first compound 0.06325 µM): 1.21 | relative viability (Entinostat + Lapatinib; first compound 0.2 µM): 1.28 | relative viability (Entinostat + Lapatinib; first compound 0.6325 µM): 0.222 | relative viability (Entinostat + Lapatinib; first compound 2 µM): 0.173 | relative viability (Entinostat + Alpelisib; first compound 0.02 µM): 1.12 | relative viability (Entinostat + Alpelisib; first compound 0.06325 µM): 1.01 | relative viability (Entinostat + Alpelisib; first compound 0.2 µM): 0.702 | relative viability (Entinostat + Alpelisib; first compound 0.6325 µM): 0.168 | relative viability (Entinostat + Alpelisib; first compound 2 µM): 0.116 | relative viability (SGI-1776 + Decitabine; first compound 0.08 µM): 0.588 | relative viability (SGI-1776 + Decitabine; first compound 0.8 µM): 0.571 | relative viability (SGI-1776 + Decitabine; first compound 2.53 µM): 0.654 | relative viability (SGI-1776 + Decitabine; first compound 8 µM): 0.467
